# From US6140362A, “Method for inhibiting the growth of mammalian cells” (Rohm and Haas Company, priority 1997, dated 2000)
# Columns and labels:
# [1] = tested on: tubulin; test: Effect of preincubation time with tubulin on inhibition of microtubule assembly; assay type: biochemical, calf; settings: 16 μM
# Protocol: (§1) Compounds were evaluated for their ability to inhibit tubulin assembly into microtubules by comparing the extent of cold-reversible assembly in the presence of each test compound with controls lacking the test compound. Tubulin was isolated from calf brain tissue by two cycles of assembly/disassembly as described by Vallee, R. B. in Methods in Enzymology, vol. 134, pp. 89-104. Assay mixtures contained 1 mg/ml of purified tubulin in 1 M sodium glutamate, pH 6.6, 1 millimolar (mM) MgCl2, and the test compound, which was added as a solution in DMSO. The final concentration of DMSO in each assay was 2% (v/v). Assay mixtures were preincubated at 37° C. for 1 h, then chilled on ice for 5 min. Microtubule assembly was initiated by addition of guanosine triphosphate (0.1 mM), and incubation at 37° C. Assembly was followed turbidimetrically at 350 nm for 20 minutes (min) using a temperature-controlled cell in a Cary 2200 spectrophotometer. Since microtubules undergo depolymerization at 0° C., assembly was confirmed by measuring the reduction in turbidity following incubation for 30 min at 0° C. The difference in absorbance before and after incubation for 30 min at 0° C. (ΔA350) represents the extent of microtubule assembly. Inhibition of assembly was calculated by subtracting the (ΔA350) values for treatments with test compounds from the (ΔA350) for controls without test compound, and expressing this difference as a percentage of the (ΔA350) value for the control. Results including test compound number, test compound concentration in micromoles per liter (μM) and percent inhibition are set forth in Table 11.
# Compound 14 (16 μM) was preincubated with tubulin under the conditions described in Example 4 for 0, 1, 2, 4 and 6 hours before initiating assembly by addition of guanosine triphosphate (0.1 mM), and incubation at 37° C. Inhibition of assembly was determined as in Example 4, and results including preincubation time and percent inhibition of assembly are set forth in Table 12.
# [2] = tested on: CNS cancer (SF539); test: Growth inhibition of human tumor cell lines: CNS cancer (SF539); assay type: cell-based; settings: SF-539, cell line E = CNS cancer (SF539), NCI testing
# Protocol: (§2) Selected compounds were evaluated by the National Cancer Institute, Bethesda, Md. against 60 human tumor cell lines according to procedures described in Principles and Practices of Oncology, volume 3, issue number 10, pp. 1-12. Results of the testing against representative cell lines including the test compound number, and the GI50 values (μM) are set forth in Table 3. The GI50 value is the concentration required to inhibit cell growth by 50% as compared to untreated control cultures.
# [3] = tested on: mouse lymphoma cell line L5178Y; test: Growth inhibition of mouse lymphoma cells (L5178Y), 48 h; assay type: cell-based; settings: 48 hours; for inhibition at 2 µM: 2 micromolar; for inhibition at 10 µM: 10 micromolar, read-out: Inhibition of growth
# Protocol: Effects of compounds on growth of mouse lymphoma cell line L5178Y, were determined as follows. Cells were grown in Fischer's medium (obtained from Life Technologies, Inc., Gaithersburg, Md.) containing 0.24 grams per liter (g/l) sodium pyruvate, 1.12 g/l surfactant (Pluronic F-68, from BASF Corporation, Parsippany, N.J.), and 10% by volume (10% v/v) heat-inactivated horse serum (obtained from Life Technologies, Inc) at 37° C. To 30 ml aliquots of cell suspension (2×10^4 cells per milliliter (mL)) in exponential growth phase were added test compounds dissolved in dimethylsulfoxide (DMSO) at various concentrations such that the final DMSO concentration in the mixtures was 0.25%. Tubes were gassed with 5% CO2 then incubated on a roller drum apparatus. After 48 hours the cells were treated with 0.1% trypsin (Life Technologies, Inc.,) for 10 minutes and counted in a Coulter Counter equipped with a 140 micrometer (μM) aperture. Percent inhibition of growth was calculated by comparing the number of cells in assays containing test compound with the number of cells in controls lacking the test compound.
# [4] = tested on: tubulin; test: Inhibition of microtubule assembly; assay type: biochemical, calf; settings: 50 μM, preincubated 1 h at 37° C.
# Protocol: as §1
# [5] = tested on: Ovarian cancer (OVCAR8); test: Growth inhibition of human tumor cell lines: Ovarian cancer (OVCAR8); assay type: cell-based; settings: OVCAR-8, cell line G = Ovarian cancer (OVCAR8), NCI testing
# Protocol: as §2
# [6] = tested on: Small cell lung cancer (DMS 114); test: Growth inhibition of human tumor cell lines: Small cell lung cancer (DMS 114); assay type: cell-based; settings: cell line C = Small cell lung cancer (DMS 114), NCI testing
# Protocol: as §2
# [7] = tested on: Nonsmall cell lung cancer (NCIH522); test: Growth inhibition of human tumor cell lines: Nonsmall cell lung cancer (NCIH522); assay type: cell-based; settings: NCI-H522, cell line B = Nonsmall cell lung cancer (NCIH522), NCI testing
# Protocol: as §2
# [8] = tested on: Melanoma (SKMEL-2); test: Growth inhibition of human tumor cell lines: Melanoma (SKMEL-2); assay type: cell-based; settings: SK-MEL-2, cell line F = Melanoma (SKMEL-2), NCI testing
# Protocol: as §2
# [9] = tested on: Renal cancer (CAKI1); test: Growth inhibition of human tumor cell lines: Renal cancer (CAKI1); assay type: cell-based; settings: CAKI-1, cell line H = Renal cancer (CAKI1), NCI testing
# Protocol: as §2
# [10] = tested on: mouse lymphoma cells; test: Effect on mitosis in mouse lymphoma cells (visible chromosomes); assay type: cell-based; settings: 2 μM, 7 hours
# Protocol: Compound 14 was dissolved in DMSO at 0.8 mM and 75 microliters (μL) of this solution was added to tubes containing 30 ml of cell suspension at 1.2×10^5 /mL grown under the conditions described in Example 1. Cells in control tubes received 75 μL of DMSO alone. Tubes were gassed with 5% CO2, then incubated on a roller drum apparatus for 7 hours. The cells were treated with hypotonic medium (3-fold diluted growth medium) and fixed in acetic acid:methanol (1:3, v/v). After staining with aceto-orcein (method described in L. La Cour, Stain Technology, vol. 16, pp. 169-174 (1941)) the percentage of cells with visible chromosomes in treated and control cells was determined based on examination of 400 cells per sample.
# [11] = tested on: Colon cancer (HCT116); test: Growth inhibition of human tumor cell lines: Colon cancer (HCT116); assay type: cell-based; settings: HCT-116, cell line D = Colon cancer (HCT116), NCI testing
# Protocol: as §2
# [12] = tested on: Leukemia (SR); test: Growth inhibition of human tumor cell lines: Leukemia (SR); assay type: cell-based; settings: cell line A = Leukemia (SR), NCI testing
# Protocol: as §2
# [13] = Biological activity of enantiomers; settings: vs corresponding R enantiomers; test not stated
Compound,Percent inhibition of microtubule assembly ([1]; preincubation time 0 h) [%],Percent inhibition of microtubule assembly ([1]; preincubation time 1 h) [%],Percent inhibition of microtubule assembly ([1]; preincubation time 2 h) [%],Percent inhibition of microtubule assembly ([1]; preincubation time 4 h) [%],Percent inhibition of microtubule assembly ([1]; preincubation time 6 h) [%],GI50 [2] [nM],inhibition at 2 µM [3] [%],Percent inhibition of microtubule assembly [4] [%],GI50 [5] [nM],GI50 [6] [nM],GI50 [7] [nM],GI50 [8] [nM],GI50 [9] [nM],Normal mitotic figures in treated cells ([10]; vs control),Number of cells with visible chromosomes ([10]; vs control),Percentage of cells with visible chromosomes ([10]; control 3.9) [Percentage],GI50 [11] [nM],GI50 [12] [nM],inhibition at 10 µM [3] [%],Activity of S enantiomer relative to R enantiomer [13]
CCC(C)(NC(=O)c1cc(Cl)cc(Cl)c1)C(=O)CCl (stereo not shown) [Compound 14],0,5.1,22.6,57.6,87.2,2100,95,56.3,2790,720,1980,1940,3830,lacking in the treated cells,produced an increase in the number of cells with visible chromosomes,27.4,2310,830,,
CC(C)(NC(=O)c1cc(Cl)cc(Cl)c1)C(=O)C(Br)Br [Compound 17],,,,,,2250,97,85.9,3000,2090,1040,2710,2370,,,,3650,1790,,
CCC(C)(NC(=O)c1cc(C)cc(C#N)c1)C(=O)CCl (stereo not shown) [Compound 23],,,,,,2550,,50.5,3430,2190,2050,2560,2810,,,,3280,650,95,
CCC(C)(NC(=O)c1cc(Cl)cc(Cl)c1)C(=O)CSC#N (stereo not shown) [Compound 26],,,,,,3450,,56.6,11900,3710,3770,12200,13300,,,,4850,5690,67,
CC(C)(NC(=O)c1cc(Cl)cc(Cl)c1)C(=O)CCl [Compound 28],,,,,,9790,,22.3,12400,5380,2610,12200,12900,,,,14200,3010,87,
CCC(C)(NC(=O)c1cncc(Br)c1)C(=O)CCl (stereo not shown) [Compound 44],,,,,,2210,95,100.0,1960,330,350,410,2360,,,,670,330,,
CC[C@](C)(NC(=O)c1cc(Cl)cc(Cl)c1)C(=O)CCl [S enantiomer of compound 14],,,,,,,,,,,,,,,,,,,,more active
CC[C@](C)(NC(=O)c1cc(Cl)c(C)c(Cl)c1)C(=O)CCl [S enantiomer of compound 32],,,,,,,,,,,,,,,,,,,,more active
